What was measured:
[1] = tested on: HTB-54 cells; set-up: method as in PMID 36257283; conditions: parent NSAIDs; cited from earlier work
[2] = tested on: HT-29 cells; conditions: parent NSAIDs; cited from earlier work
[3] = tested on: MCF-7 cells; set-up: method as in PMID 36257283; conditions: parent NSAIDs; cited from earlier work
[4] = tested on: AChE; assay: AChE inhibition quoted from the literature; type: biochemical; conditions: AChE IC50 ratio to 14a
[5] = tested on: AChE; set-up: method as in PMID 25312723; conditions: cited from earlier work

Row | Compound | IC50 [1] | IC50 [2] | IC50 [3] | fold higher IC50 than compound 14a [4] | IC50 [5] | fold lower IC50 than compound 14a [4]
1 | COc1ccc2c(c1)c(CC(=O)O)c(C)n2C(=O)c1ccc(Cl)cc1 [Indomethacin, 2-[1-(4-chlorobenzoyl)-5-methoxy-2-methylindol-3-yl] acetic acid] | > 100 µM | > 100 µM | > 100 µM |  |  | 
2 | CC(=O)Oc1ccccc1C(=O)O [ASA] | > 100 µM | > 100 µM | > 100 µM |  |  | 
3 | O=c1c2ccccc2[se]n1-c1ccccc1 [Ebselen, ebselen] |  |  |  | 32 fold | 29 µM | 
4 | selenepezil |  |  |  |  | 0.097 µM | 9 fold
